Test results from US20060014806A1 (published 2006).

melting point [°C]	SMILES
78 to 81	COC(=O)NCC#Cc1ccc(OCCCOc2c(Cl)cc(OCC=C(Cl)Cl)cc2Cl)cc1
88 to 93	CC(C)NC(=O)/C(C#N)=C/c1ccc(OCCCOc2c(Cl)cc(OCC=C(Cl)Cl)cc2Cl)cc1
100 to 103	CO/N=C1/C=C(c2ccc(OCCCOc3c(Cl)cc(OCC=C(Cl)Cl)cc3Cl)cc2)CC1
